According to patent US5627198A, “Heterocyclic amides” (Hafslund Nycomed Pharma Aktiengesellschaft, priority 1994, dated 1997):

What was measured:
bladder strips = experiment: Effects on the bladder muscle in vitro (relaxant effect on bladder strips); set-up: species or system guinea pigs; conditions: Cavia porcellus; guinea pig bladder strips; contractions triggered by electrical stimulation or KCl depolarization; read-out: A IC50 (concentration which reduces contraction of bladder strips by 50%)
Protocol: Effects on the bladder muscle in vitro
In these experiments, the IC50 value denotes the concentration of a substance which reduces contraction by 50%.
Male albino guinea pigs weighing about 400 g are killed painlessly by a blow to the neck and quickly exsanguinated. The abdominal cavity is opened and the bladder is carefully resectioned. It is placed in a Petri dish filled with Krebs solution, and surrounding connective and fatty tissue is removed. Two horizontal strips of tissue are prepared. With the aid of two threads which are attached to both ends of the strips of tissue, the strips are suspended in an organ bath. They are fastened at the bottom to a hook and at the top to an electric force transducer which is able to measure precisely contractions of 0-10 g in strength. The measured contractions are amplified by means of a bridge amplifier and are recorded with a thermal plotter. The signals obtained can also be integrated electronically on another plotter channel in order to quantify in-phase contractions.
(§1) The organ baths are filled with Krebs solution at 37° C. through which an O2 /CO2 mixture is bubbled thoroughly and which has the following composition (mmol/1): NaCl 118.4; KCl 4.7; CaCl2 2.5; KH2 PO4 1.2; MgSO4 1.2; NaHCO3 25; glucose 11.
The strips are stretched with a basic tone of about 0.5 g. After an equilibration time of about 30 minutes, one of the two strips is stimulated electrically every minute using built-in electrodes (period of stimulation 2 seconds, 30 Hz, 0.5 ms pulse width, 10 volts) in order to trigger short-term contractions. The other strip is made to exert in-phase contraction by depolarization (addition of […] KCl to the organ bath). Both the contractions triggered by electrical stimulation and those initiated by depolarization and occurring in the strips of bladder muscle quickly reach a plateau. As soon as this plateau is reached ("100% value"), the test substance is added to the organ bath, initially at 10w concentrations, for example 10^-8 M, and then in increasing doses at regular intervals, until the contractions reduce or the final concentration of 10^-4 M is reached. Each test substance is tested 2-4 times in this way.
For purposes of evaluation, the height of the contractions registered on the plotter paper is measured for each experiment after the action of each test concentration added. The IC50 value can be calculated in this way in relation to the original height of contractions before the addition of substance (100%). All of the IC50 values are shown in column A of Table 1.

[1] = tested on: arterial blood pressure, conscious rat; experiment: Effects on blood pressure in vivo, conscious rat; set-up: species or system Sprague-Dawley rats
Protocol: Effects on blood pressure in vivo
The rats were fasted overnight before the day of the experiment.
On the day of experiment, the rats were brought into the laboratory and their blood pressure and heart rate was recorded over about 30 minutes. The test substances, suspended in 0.5% methylcellulose, were then administered perorally via a stomach tube (volume: 3 ml/kg of body weight) and blood pressure and heart rate were measured over the next 6 hours. The percentage changes in the measured values in relation to the initial values were calculated and were determined for groups of 3-4 similarly treated animals.

rings of aorta = experiment: Effects on vessel muscle in vitro (aorta rings, KCl depolarization); set-up: species or system rats; conditions: rat aorta rings contracted with 25 mM KCl; read-out: B IC50 (rings of aorta)
Protocol: Effects on vessel muscle in vitro
Male rats weighing about 300 g are killed painlessly by a blow to the neck and quickly exsanguinated. The thoracic cavity is opened and the aorta is carefully resectioned. It is placed in a Petri dish filled with Krebs solution, and surrounding connective and fatty tissue is removed. Two rings are prepared. The rings are each suspended in an organ bath. They are attached at the bottom to a hook and at the top to an electrical force transducer which is able to measure precisely contractions of 0-10 grams in strength. The measured contractions are amplified by means of a bridge amplifier and recorded with a thermal plotter.
as §1
The rings are stretched with a basic tone of about 0.5 g. After an equilibration time of about 30 minutes, the rings are caused to undergo contraction by depolarization (addition of 25 mM KCl to the organ bath). The contractions of the rings of aorta, triggered by the depolarization, quickly reach a plateau. As soon as this plateau is reached ("100% value"), the test substance is added to the organ bath, initially at low concentrations, for example 10^-8 M, and then in increasing doses at regular intervals, until the contractions reduce or the final concentration of 10^-4 M is reached. Each test substance is tested 2-4 times in this way.
For purposes of evaluation, the height of the contractions registered on the plotter paper is measured for each experiment after the action of each test concentration added. The IC50 value can be calculated in this way in relation to the original height of contractions before the addition of substance (100%). IC50 values are shown in column B of Table 1.

Structure (SMILES) | IC50 (bladder strips) [µM] | IC50 (rings of aorta) [µM] | Reduction in diastolic pressure, % of initial value ([1]; 6 mg/kg peroral, 30 min) | Reduction in diastolic pressure, % of initial value ([1]; 6 mg/kg peroral, 60 min) | Reduction in diastolic pressure, % of initial value ([1]; 6 mg/kg peroral, 120 min) | Reduction in diastolic pressure, % of initial value ([1]; 6 mg/kg peroral, 15 min) | Reduction in diastolic pressure, % of initial value ([1]; 18 mg/kg peroral, 15 min) | Reduction in diastolic pressure, % of initial value ([1]; 18 mg/kg peroral, 30 min) | Reduction in diastolic pressure, % of initial value ([1]; 18 mg/kg peroral, 60 min) | Reduction in diastolic pressure, % of initial value ([1]; 18 mg/kg peroral, 120 min) | Reduction in diastolic pressure, % of initial value ([1]; 1 mg/kg peroral, 15 min) | Reduction in diastolic pressure, % of initial value ([1]; 1 mg/kg peroral, 30 min) | Reduction in diastolic pressure, % of initial value ([1]; 1 mg/kg peroral, 60 min) | Reduction in diastolic pressure, % of initial value ([1]; 1 mg/kg peroral, 120 min)
CC(O)(C(=O)Nc1ccc(C(=O)c2ccccc2)s1)C(F)(F)F (stereo not shown) [Example 1, N-[5-(Phenylcarbonyl)thien-2-yl]-3,3,3-tri-fluoro-2-hydroxy-2-methylpropanamide] | 100 | 2.5 | 3 % of initial value | 2 % of initial value | 4 % of initial value |  |  |  |  |  |  |  |  | 
CC(O)(C(=O)Nc1ncc(C(=O)c2ccccc2)s1)C(F)(F)F (stereo not shown) [Example 2, N-[5-(Phenylcarbonyl)thiazol-2-yl]-3,3,3-trifluoro-2-hydroxy-2-methylpropanamide] | 100 | 20 | 8 % of initial value | 5 % of initial value |  | 2 % of initial value |  |  |  |  |  |  |  | 
CC(O)(C(=O)Nc1nnc(C(=O)c2ccccc2)s1)C(F)(F)F (stereo not shown) [Example 3, N-[5-(Phenylcarbonyl)-1,3,4-thiadiazol-2-yl]-3,3,3-trifluoro-2-hydroxy-2-methylpropanamide] | 50 | 10 | 3 % of initial value | 2 % of initial value | 4 % of initial value |  |  |  |  |  |  |  |  | 

Second part, led by results:

IC50 (bladder strips) [µM] | IC50 (rings of aorta) [µM] | Structure (SMILES) | Reduction in diastolic pressure, % of initial value ([1]; 6 mg/kg peroral, 30 min) | Reduction in diastolic pressure, % of initial value ([1]; 6 mg/kg peroral, 60 min) | Reduction in diastolic pressure, % of initial value ([1]; 6 mg/kg peroral, 120 min) | Reduction in diastolic pressure, % of initial value ([1]; 6 mg/kg peroral, 15 min) | Reduction in diastolic pressure, % of initial value ([1]; 18 mg/kg peroral, 15 min) | Reduction in diastolic pressure, % of initial value ([1]; 18 mg/kg peroral, 30 min) | Reduction in diastolic pressure, % of initial value ([1]; 18 mg/kg peroral, 60 min) | Reduction in diastolic pressure, % of initial value ([1]; 18 mg/kg peroral, 120 min) | Reduction in diastolic pressure, % of initial value ([1]; 1 mg/kg peroral, 15 min) | Reduction in diastolic pressure, % of initial value ([1]; 1 mg/kg peroral, 30 min) | Reduction in diastolic pressure, % of initial value ([1]; 1 mg/kg peroral, 60 min) | Reduction in diastolic pressure, % of initial value ([1]; 1 mg/kg peroral, 120 min)
1.7 | 1.2 | CC(O)(C(=O)Nc1ccc(S(=O)(=O)c2ccccc2)s1)C(F)(F)F (stereo not shown) [Example 4, N-[5-(Phenylsulfonyl)thien-2-yl]-3,3,3-trifluoro-2-hydroxy-2-methylpropanamide] | 5 % of initial value | 4 % of initial value | 6 % of initial value | 1 % of initial value | 0 % of initial value | 8 % of initial value | 10 % of initial value | 15 % of initial value |  |  |  | 
1 | 0.065 | CC1(C)Oc2ccc(C#N)cc2C(N2CCCC2=O)C1O (stereo not shown) [V, cromakalim, reference compound] |  |  |  |  |  |  |  |  | 53 % of initial value | 49 % of initial value | 40 % of initial value | 26 % of initial value
